Molecular target: c-Met (Homo sapiens, UniProt P08581)
Assay: radiometric protein kinase assay with recombinant human c-Met
Type: biochemical

Sequence of c-Met (P08581 25-307): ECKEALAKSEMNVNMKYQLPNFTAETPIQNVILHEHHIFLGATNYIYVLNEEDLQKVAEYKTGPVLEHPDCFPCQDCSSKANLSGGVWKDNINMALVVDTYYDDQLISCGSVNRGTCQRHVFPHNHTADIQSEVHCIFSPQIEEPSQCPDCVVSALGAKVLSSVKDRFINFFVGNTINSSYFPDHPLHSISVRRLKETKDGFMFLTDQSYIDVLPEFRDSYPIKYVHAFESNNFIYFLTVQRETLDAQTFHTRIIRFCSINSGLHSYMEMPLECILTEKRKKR
Sequence of c-Met (P08581 308-1390): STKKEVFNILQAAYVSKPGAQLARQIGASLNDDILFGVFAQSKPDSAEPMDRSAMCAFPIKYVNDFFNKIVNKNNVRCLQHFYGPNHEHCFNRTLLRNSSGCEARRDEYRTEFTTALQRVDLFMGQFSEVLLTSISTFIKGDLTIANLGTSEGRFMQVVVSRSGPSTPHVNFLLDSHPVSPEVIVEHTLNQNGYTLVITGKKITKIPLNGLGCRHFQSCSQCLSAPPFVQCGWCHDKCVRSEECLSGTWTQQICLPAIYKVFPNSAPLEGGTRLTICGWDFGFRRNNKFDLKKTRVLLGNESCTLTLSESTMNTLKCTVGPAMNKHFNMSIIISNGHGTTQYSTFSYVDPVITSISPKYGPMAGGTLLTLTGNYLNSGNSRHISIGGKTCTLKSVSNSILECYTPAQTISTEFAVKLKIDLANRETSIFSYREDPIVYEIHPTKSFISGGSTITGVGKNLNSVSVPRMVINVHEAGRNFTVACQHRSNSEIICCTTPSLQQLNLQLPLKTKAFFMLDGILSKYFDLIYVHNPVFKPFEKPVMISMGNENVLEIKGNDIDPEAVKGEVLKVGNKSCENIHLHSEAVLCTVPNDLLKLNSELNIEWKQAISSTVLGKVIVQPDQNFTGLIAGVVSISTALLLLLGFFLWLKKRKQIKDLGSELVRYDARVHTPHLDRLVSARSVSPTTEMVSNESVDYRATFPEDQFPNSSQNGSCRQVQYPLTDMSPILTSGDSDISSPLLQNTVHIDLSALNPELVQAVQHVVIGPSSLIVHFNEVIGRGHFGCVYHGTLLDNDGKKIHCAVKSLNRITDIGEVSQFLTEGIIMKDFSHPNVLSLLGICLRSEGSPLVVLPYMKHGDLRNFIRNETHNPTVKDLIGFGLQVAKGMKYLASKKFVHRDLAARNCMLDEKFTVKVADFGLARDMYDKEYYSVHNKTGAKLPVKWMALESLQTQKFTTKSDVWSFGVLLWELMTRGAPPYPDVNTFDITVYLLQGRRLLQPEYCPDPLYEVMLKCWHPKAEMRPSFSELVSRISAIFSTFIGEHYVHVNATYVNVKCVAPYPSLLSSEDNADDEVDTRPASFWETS

COc1c(C=O)c(O)cc2c1C(=O)c1ccccc1C2=O [damnacanthal, 3-hydroxy-1-methoxy-anthraquinone-2-aldehyde]
IC50: 5.1 ± 0.1 µM
